# ChEMBL document CHEMBL1201862, “PubChem BioAssay data set” (2004)
# The source made the active and inactive calls.
# What was measured:
# [1] = biological target: DNA dC->dU-editing enzyme APOBEC-3A (Homo sapiens, UniProt P31941); test: Dose Response confirmation of small molecule APOBEC3A DNA Deaminase Inhibitors via a fluorescence-based single-stranded DNA deaminase assay. [Related pubchem assays (depositor defined):AID493011, AID493024]; type: functional
# [2] = biological target: DNA dC->dU-editing enzyme APOBEC-3G (Homo sapiens, UniProt Q9HC16); type: functional;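 further: Dose-response counterscreen measuring inhibition of APOBEC3G DNA deaminase activity, run while confirming APOBEC3A inhibitors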
# DNA dC->dU-editing enzyme APOBEC-3G, sequence (Q9HC16 whole entry, the tested form may be a part): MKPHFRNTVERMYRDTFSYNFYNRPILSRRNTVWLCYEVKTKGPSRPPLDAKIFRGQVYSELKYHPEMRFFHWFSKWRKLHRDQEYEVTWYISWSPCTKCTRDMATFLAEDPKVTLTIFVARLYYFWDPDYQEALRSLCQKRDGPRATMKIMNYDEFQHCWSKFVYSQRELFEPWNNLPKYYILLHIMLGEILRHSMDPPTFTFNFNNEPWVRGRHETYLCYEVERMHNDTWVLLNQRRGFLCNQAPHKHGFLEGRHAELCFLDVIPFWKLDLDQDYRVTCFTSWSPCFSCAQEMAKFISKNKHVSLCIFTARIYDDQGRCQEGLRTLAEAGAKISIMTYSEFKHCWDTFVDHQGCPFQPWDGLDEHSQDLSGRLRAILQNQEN
# [3] = biological target: T1, RNA-binding protein pos-1 (Caenorhabditis elegans, UniProt G5EF15); test: disruptors of C. elegans POS-1 RNA interaction – biochemical, fluorescence polarization, dose response (AID 1964);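 further: purified POS-1 fused to maltose binding protein made in E. coli; potency of compounds blocking POS-1 binding to fluorescent RNA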
# T1 sequence (G5EF15 whole entry): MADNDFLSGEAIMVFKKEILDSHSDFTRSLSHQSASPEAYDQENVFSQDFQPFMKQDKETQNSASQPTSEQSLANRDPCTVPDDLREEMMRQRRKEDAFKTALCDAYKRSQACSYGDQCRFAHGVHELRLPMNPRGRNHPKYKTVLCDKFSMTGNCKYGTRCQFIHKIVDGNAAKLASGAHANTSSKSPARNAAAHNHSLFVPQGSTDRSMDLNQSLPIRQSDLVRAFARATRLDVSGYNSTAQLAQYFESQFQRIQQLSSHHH
# [4] = biological target: T2, Zinc finger protein mex-5 (Caenorhabditis elegans, UniProt Q9XUB2); test: potency of MEX-5 RNA-binding blockers – biochemical, C. elegans, fluorescence polarization, dose response (AID 1960)
# T2 sequence (Q9XUB2 whole entry): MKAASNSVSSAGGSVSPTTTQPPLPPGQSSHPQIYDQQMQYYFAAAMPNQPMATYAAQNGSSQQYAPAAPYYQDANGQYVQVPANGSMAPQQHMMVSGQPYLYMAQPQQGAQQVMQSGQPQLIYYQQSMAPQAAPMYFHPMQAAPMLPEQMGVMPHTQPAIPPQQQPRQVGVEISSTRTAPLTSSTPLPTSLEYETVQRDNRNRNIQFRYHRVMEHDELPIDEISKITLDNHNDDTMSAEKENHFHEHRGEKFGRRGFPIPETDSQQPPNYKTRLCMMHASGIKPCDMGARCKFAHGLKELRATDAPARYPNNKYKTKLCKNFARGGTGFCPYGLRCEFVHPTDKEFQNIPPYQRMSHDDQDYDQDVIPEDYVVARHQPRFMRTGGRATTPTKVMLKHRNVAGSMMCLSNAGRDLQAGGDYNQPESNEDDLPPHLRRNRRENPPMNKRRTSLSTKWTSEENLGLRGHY
# [5] = biological target: T3, Bifunctional protein GlmU (Mycobacterium tuberculosis, UniProt P9WMN3); test: Inhibitors of Mycobacterial Glucosamine-1-phosphate acetyl transferase (GlmU). Secondary screen.; parameters: species or system Mycobacterium tuberculosis H37Rv
# T3 sequence (P9WMN3 whole entry): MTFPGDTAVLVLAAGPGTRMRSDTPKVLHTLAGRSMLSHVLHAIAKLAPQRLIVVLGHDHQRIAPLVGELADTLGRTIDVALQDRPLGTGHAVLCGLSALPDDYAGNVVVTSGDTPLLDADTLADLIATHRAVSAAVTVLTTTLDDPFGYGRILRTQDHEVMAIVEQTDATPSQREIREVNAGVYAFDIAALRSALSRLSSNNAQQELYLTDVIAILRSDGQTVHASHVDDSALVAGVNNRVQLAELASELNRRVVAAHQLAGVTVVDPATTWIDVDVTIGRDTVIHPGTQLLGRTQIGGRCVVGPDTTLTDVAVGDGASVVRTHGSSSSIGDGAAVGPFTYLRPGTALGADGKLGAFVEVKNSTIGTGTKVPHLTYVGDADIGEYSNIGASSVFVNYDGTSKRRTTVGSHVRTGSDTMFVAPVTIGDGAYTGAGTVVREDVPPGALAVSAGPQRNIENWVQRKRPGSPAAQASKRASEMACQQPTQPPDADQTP
# 14-3-3 protein gamma = biological target: T4, 14-3-3 protein gamma (Homo sapiens, UniProt P61981); test: modulators of 14-3-3 gamma client binding – dose response (AID 711); type: functional
# T4 sequence (P61981 whole entry): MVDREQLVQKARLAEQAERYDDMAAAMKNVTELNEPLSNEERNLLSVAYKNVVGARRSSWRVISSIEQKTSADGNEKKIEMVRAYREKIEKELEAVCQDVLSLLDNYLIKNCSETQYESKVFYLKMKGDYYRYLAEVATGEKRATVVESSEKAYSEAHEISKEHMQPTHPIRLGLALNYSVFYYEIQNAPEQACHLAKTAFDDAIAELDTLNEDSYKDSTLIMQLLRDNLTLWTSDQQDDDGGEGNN
# [6] = biological target: T5, 5-hydroxytryptamine receptor 1A (Homo sapiens, UniProt P08908); type: functional
# T5 sequence (P08908 whole entry): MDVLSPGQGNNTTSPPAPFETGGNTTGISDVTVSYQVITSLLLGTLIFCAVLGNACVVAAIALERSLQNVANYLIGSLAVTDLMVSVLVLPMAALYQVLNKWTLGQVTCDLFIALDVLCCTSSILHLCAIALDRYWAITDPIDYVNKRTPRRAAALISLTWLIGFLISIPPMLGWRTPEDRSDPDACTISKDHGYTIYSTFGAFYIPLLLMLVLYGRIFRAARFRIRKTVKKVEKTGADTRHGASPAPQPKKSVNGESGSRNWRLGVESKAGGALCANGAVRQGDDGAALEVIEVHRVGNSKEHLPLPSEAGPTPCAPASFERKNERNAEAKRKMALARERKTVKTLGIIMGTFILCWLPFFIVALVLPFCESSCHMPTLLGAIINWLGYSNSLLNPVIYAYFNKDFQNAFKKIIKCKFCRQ
# [7] = biological target: T6, High affinity choline transporter 1 (Homo sapiens, UniProt Q9GZV3); test: human choline transporter blockers, potency – cell-based, 5-point CRC, membrane potential dye, dose response (AID 504840); type: functional
# T6 sequence (Q9GZV3 whole entry): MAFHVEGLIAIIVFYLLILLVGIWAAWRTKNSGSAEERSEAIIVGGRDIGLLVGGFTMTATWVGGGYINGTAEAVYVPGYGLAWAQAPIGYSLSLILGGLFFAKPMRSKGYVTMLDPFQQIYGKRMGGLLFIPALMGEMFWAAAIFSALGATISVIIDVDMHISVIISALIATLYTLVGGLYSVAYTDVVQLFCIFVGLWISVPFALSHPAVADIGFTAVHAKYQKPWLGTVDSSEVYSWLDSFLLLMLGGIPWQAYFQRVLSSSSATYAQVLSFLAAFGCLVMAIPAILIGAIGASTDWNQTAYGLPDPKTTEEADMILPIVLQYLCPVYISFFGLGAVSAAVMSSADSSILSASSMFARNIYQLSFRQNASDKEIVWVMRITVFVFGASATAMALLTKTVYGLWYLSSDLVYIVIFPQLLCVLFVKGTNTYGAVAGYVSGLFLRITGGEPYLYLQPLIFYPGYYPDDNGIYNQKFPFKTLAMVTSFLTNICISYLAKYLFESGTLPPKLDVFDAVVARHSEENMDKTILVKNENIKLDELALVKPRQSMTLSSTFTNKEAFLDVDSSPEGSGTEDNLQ
# [8] = viability of uninfected HEp-2 cells – cell-based, HTS, cytotoxicity control for RSV inhibitor project, dose response (AID 2410); type: functional; conditions: human respiratory syncytial virus
# Kallikrein-7 = Kallikrein-7 (Homo sapiens, UniProt P49862); test: Fluorescence Intensity-based biochemical primary high throughput dose response assay to identify activators of kallikrein-7 (K7) zymogen.
# Kallikrein-7, sequence (P49862 whole entry): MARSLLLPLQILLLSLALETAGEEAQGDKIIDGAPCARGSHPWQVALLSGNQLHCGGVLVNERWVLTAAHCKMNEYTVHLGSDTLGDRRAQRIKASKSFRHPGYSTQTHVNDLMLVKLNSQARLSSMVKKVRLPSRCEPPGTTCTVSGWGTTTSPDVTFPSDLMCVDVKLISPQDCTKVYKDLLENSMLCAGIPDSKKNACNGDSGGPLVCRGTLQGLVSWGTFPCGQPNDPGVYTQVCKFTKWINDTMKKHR
# Ephrin type-A receptor 4 = Ephrin type-A receptor 4 (Mus musculus, UniProt Q03137); test: EphA4 ligand-binding antagonists – biochemical, colorimetric, mouse EphA4, primary screen (AID 689); type: functional
# Ephrin type-A receptor 4, sequence (Q03137 whole entry): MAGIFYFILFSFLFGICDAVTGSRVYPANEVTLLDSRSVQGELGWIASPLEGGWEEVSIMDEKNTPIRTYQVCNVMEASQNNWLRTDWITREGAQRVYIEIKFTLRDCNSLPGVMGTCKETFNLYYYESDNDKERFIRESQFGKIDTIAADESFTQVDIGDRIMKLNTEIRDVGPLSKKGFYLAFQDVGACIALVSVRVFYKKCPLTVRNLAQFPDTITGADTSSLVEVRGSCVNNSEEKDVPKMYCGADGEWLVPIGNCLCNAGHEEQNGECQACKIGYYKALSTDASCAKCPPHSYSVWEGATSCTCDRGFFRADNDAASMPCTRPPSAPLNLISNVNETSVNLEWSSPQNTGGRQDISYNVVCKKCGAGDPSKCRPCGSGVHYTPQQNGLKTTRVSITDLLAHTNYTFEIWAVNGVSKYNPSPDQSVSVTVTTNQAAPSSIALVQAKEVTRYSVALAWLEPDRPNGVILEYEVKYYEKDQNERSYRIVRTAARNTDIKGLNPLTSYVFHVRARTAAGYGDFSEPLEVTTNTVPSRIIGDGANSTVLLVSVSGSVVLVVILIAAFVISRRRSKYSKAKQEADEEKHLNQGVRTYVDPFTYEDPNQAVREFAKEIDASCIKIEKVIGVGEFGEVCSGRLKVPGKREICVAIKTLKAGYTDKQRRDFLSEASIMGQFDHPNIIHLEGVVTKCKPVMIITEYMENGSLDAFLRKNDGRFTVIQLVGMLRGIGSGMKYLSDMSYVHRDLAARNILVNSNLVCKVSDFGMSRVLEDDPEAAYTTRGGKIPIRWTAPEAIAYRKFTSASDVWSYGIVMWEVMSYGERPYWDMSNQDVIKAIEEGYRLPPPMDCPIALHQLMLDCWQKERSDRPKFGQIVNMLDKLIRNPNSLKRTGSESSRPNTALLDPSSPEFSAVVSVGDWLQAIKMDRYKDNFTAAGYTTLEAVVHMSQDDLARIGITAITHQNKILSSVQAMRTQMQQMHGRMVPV
# Prothrombin = Prothrombin (Bos taurus, UniProt P00735); test: thrombin protease inhibitors – biochemical, fluorescence polarization, uHTS hits, dose response (AID 602369); type: functional
# [9] = biological target: 26S proteasome non-ATPase regulatory subunit 14 (Homo sapiens, UniProt O00487); test: inhibition of proteasome subunit RPN11 – biochemical, fluorescence polarization, uHTS hits, confirmation (AID 602368); type: functional
# 26S proteasome non-ATPase regulatory subunit 14, sequence (O00487 whole entry): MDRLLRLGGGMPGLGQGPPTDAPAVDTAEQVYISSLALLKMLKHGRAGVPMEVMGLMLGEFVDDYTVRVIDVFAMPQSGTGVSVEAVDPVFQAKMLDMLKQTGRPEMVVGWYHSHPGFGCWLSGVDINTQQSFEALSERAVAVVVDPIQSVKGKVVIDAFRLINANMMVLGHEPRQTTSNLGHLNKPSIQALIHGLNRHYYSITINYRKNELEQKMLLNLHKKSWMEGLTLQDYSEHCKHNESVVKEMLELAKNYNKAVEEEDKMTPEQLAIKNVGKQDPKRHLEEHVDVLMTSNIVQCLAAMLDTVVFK
# [10] = biological target: 72 kDa type IV collagenase (Homo sapiens, UniProt P08253); test: Dose Response validation of uHTS RPN11 inhibitor hits using a MMP-2 Fluorescence assay.; type: functional
# 72 kDa type IV collagenase, sequence (P08253 whole entry): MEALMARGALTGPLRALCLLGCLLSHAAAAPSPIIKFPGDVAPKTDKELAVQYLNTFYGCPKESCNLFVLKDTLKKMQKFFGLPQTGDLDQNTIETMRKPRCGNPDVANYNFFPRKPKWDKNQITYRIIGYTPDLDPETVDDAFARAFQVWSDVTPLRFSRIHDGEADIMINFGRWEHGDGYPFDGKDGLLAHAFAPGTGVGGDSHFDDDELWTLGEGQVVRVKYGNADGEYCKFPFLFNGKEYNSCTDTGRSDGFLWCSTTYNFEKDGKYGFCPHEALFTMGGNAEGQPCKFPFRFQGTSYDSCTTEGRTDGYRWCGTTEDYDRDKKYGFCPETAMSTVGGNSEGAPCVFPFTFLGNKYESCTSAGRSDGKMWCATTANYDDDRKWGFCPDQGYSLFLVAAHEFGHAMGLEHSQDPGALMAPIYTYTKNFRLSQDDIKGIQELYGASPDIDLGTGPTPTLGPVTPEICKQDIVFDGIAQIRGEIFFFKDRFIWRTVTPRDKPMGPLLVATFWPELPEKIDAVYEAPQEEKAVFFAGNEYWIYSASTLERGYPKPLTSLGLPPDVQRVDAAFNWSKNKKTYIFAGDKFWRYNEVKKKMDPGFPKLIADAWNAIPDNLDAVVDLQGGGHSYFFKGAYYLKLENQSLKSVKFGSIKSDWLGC
# [11] = biological target: DNA (cytosine-5)-methyltransferase 1 (Homo sapiens, UniProt P26358); test: inhibition of DNA methylation by DNMT1 – biochemical, fluorescent molecular beacon, confirmation (AID 602386); type: functional
# DNA (cytosine-5)-methyltransferase 1, sequence (P26358 whole entry): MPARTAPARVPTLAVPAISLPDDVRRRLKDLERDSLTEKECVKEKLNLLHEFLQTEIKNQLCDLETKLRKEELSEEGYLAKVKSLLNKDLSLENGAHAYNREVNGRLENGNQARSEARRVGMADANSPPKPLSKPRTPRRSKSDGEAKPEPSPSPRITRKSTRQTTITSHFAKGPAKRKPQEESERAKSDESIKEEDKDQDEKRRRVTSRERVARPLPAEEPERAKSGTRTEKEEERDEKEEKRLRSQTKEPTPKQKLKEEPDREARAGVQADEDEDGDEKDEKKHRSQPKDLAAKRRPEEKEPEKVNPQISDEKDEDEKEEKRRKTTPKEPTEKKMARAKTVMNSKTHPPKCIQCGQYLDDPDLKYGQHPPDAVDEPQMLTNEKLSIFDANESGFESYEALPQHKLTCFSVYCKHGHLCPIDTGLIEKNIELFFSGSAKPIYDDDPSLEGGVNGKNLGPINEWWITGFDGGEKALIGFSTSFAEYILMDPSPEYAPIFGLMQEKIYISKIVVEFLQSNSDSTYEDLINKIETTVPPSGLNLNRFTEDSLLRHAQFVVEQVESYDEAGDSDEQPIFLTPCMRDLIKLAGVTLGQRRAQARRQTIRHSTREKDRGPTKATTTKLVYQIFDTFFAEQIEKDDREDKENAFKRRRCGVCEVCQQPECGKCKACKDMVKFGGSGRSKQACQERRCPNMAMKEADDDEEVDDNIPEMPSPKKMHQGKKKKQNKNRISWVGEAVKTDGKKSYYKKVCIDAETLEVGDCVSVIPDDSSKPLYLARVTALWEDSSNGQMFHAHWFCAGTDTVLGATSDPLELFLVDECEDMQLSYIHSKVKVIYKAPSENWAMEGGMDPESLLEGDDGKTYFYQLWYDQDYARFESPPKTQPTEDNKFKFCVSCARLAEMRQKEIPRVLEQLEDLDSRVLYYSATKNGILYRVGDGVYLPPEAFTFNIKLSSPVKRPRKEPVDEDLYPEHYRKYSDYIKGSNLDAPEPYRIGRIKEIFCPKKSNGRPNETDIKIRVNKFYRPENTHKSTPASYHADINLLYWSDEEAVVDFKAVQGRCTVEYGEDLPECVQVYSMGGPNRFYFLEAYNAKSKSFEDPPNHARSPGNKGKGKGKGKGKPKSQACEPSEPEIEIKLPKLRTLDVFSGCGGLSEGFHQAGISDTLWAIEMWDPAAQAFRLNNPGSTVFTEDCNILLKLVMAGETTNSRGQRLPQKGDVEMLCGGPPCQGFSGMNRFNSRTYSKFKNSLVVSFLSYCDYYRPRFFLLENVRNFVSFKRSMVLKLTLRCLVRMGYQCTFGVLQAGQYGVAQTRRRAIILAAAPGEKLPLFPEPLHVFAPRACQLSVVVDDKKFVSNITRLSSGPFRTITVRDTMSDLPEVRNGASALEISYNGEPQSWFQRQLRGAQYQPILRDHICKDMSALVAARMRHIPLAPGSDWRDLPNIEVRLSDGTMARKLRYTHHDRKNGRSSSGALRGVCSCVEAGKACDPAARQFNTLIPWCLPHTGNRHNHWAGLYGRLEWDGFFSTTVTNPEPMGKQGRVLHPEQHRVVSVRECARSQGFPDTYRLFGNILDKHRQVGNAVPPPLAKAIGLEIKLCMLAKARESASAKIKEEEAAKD
# ORF 73 = biological target: T7, ORF 73 (Human herpesvirus 8, UniProt O40947); test: KSHV LANA DNA-binding disruption – biochemical, fluorescence polarization, cherry-picked samples, dose response (AID 504725); parameters: species or system Human gammaherpesvirus 8;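 further: fluorescence polarization of a labeled DNA duplex reporting LANA DNA binding; potency is for inhibitors that block LANA binding to the DNA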
# T7 sequence (O40947 whole entry): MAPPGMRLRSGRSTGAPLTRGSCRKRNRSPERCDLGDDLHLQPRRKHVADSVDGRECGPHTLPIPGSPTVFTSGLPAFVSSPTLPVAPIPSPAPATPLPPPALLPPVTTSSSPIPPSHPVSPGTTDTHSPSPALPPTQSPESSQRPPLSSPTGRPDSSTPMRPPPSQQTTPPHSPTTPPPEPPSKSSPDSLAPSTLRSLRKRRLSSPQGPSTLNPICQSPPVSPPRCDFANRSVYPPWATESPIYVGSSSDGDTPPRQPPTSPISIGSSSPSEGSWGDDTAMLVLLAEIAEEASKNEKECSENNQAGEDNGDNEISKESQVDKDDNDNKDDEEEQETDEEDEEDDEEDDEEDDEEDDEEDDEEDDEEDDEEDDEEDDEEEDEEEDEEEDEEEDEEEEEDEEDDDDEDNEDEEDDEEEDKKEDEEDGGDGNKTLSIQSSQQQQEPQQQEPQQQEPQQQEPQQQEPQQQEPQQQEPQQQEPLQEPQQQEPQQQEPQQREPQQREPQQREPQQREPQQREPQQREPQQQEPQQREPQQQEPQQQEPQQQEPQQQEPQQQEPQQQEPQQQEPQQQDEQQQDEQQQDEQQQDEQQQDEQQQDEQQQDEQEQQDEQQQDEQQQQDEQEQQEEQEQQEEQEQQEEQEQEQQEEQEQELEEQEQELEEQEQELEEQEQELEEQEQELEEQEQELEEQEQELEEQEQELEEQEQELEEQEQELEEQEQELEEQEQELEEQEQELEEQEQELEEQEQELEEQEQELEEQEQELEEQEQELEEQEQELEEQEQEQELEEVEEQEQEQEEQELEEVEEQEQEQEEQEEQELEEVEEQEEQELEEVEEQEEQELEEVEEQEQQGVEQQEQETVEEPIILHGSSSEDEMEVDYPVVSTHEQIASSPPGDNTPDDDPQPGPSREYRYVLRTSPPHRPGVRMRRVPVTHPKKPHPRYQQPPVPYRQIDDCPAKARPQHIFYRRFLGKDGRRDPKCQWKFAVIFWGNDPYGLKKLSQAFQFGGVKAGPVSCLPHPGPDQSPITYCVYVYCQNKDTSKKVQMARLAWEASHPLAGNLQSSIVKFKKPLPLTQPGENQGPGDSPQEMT
# [12] = Trypanosoma cruzi growth suppression in host cells – NIH3T3 host cells, beta-gal luminescence, confirmation (AID 2044); type: functional, cell-based;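 further: intracellular parasites grown in NIH/3T3 mouse fibroblasts as host cells; luminescent beta-galactosidase reporter signal from transgenic T. cruzi replicating inside host cells; inhibitors lower the luminescence signal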
# [13] = Luminescence Cell-Based Dose Retest to Confirm Inhibitors of Cancer Stem Cells. [Related pubchem assays (depositor defined):AID2717, AID2721]; type: functional; conditions: Homo sapiens
# [14] = NIH3T3 cell viability loss – ATP luminescence, mouse fibroblasts, counter-screen, dose response (AID 2010); type: functional, cell-based;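 further: cells exposed to compound for about 90 hours before reading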
# [15] = biological target: G-protein coupled receptor 183 (Homo sapiens, UniProt P32249); test: SAR confirmation of small molecule antagonists of the EBI2 receptor via a luminescent beta-arrestin assa.; type: functional
# G-protein coupled receptor 183, sequence (P32249 whole entry): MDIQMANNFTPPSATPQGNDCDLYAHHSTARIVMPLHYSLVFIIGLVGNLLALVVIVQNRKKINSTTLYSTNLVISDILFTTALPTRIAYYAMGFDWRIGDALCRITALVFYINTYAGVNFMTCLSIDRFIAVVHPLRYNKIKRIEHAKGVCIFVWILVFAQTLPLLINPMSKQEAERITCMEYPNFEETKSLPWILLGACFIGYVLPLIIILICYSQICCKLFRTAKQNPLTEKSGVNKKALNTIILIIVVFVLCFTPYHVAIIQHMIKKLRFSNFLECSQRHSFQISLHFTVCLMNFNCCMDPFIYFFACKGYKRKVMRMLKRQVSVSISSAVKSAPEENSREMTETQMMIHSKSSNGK
# [16] = IC50 of insulin release inhibition, rat insulinoma INS-1E line, 5 mM glucose, cell-based (AID 1117331); type: functional
# DNA dC->dU-editing enzyme APOBEC-3A, sequence (P31941 whole entry): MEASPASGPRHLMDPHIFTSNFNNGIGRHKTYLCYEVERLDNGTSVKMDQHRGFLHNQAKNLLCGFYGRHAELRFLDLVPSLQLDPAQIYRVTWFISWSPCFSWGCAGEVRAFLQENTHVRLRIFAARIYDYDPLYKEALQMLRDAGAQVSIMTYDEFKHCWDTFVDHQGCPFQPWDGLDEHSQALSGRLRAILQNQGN
smiles,measurement,setting,value
CSc1nnc(SCc2nc3sc(C(=O)O)c(C)c3c(=O)[nH]2)s1,IC50,[1],14 µM (active)
same,IC50,[2],24.6 µM (active)
same,EC50,[3],25.4 µM (active)
same,EC50,[4],30.6 µM (active)
same,IC50,[5],76.2 µM (active)
COc1ccc(-n2ncc3c(N4CCCc5ccccc54)ncnc32)cc1,IC50,14-3-3 protein gamma,> 50 µM (not active)
CCOc1ccc(N2C(=O)NC(=O)/C(=C\NCCN3CCNCC3)C2=O)cc1,IC50,14-3-3 protein gamma,> 50 µM (not active)
Cc1cccc(N2CCN(C(=O)Cc3c(C(=O)O)[nH]c4ccc(Cl)cc34)CC2)c1C,EC50,[6],> 50 µM (not active)
same,IC50,[7],10.8 µM (active)
same,CC50,[8],20.4 µM (active)
O=c1c(-c2ccccc2)coc2c(CN3CCOCC3)c(O)ccc12,EC50,Kallikrein-7,12.4 µM (inactive)
Cc1nn(-c2ccccc2)c2c1C(c1cccnc1)N1C=C(S(=O)(=O)N3CCCCC3)C=CC1=N2 (centres undefined),IC50,Ephrin type-A receptor 4,> 100 µM (not active)
O=C(Nc1cccc(-c2cn3ccsc3n2)c1)c1ccccc1,EC50,[6],> 50 µM (not active)
COC(=O)c1ccccc1NC(=O)CCS(=O)(=O)c1ccc(Br)cc1,IC50,Prothrombin,> 100 µM (inactive)
same,IC50,[9],14 µM (active)
same,IC50,[10],22.5 µM (active)
same,IC50,[11],3.69 µM (active)
same,IC50,[5],28.6 µM (active)
same,AC50,ORF 73,31.5 µM (active)
Cc1cc(Nc2cccc(F)c2)nc(-c2ccccc2O)n1,EC50,Kallikrein-7,> 69.5 µM (inactive)
same,EC50,[12],4.15 µM (active)
same,AC50,[13],3.68 µM (active)
same,EC50,[14],> 60 µM (not active)
Cc1ccc(NC(=O)C2=CC(c3cccs3)=NS(=O)(=O)N2C)cc1,EC50,Kallikrein-7,33.9 µM (inactive)
C/C(=C\C(=O)c1ccccc1)NNc1nc2ccccc2s1,IC50,Ephrin type-A receptor 4,> 100 µM (not active)
CC(C)(C)c1ccc(S(=O)(=O)N2CCN(C(=O)/C=C/c3ccc(F)cc3)CC2)cc1,IC50,[15],0.0124 µM (active)
O=C(/C=C/c1ccc(Br)cc1)N1CCN(C(=O)c2ccc(Cl)cc2)CC1,IC50,[15],0.000409 µM (active)
O=C(/C=C/c1ccc(F)cc1)N1CCN(S(=O)(=O)c2cc(Cl)ccc2Cl)CC1,IC50,[15],0.0219 µM (active)
CC(CCc1ccccc1)NC(C)C(O)c1ccc(O)cc1 (centres undefined) [NYLIDRIN],IC50,[16],14.5 µM (inactive)
